# Assay results published in publication PMC9356065, “Novel psoralen derivatives as anti-breast cancer agents and their light-activated cytotoxicity against HER2 positive breast cancer cells” (Scientific Reports, 2022).
# Tests used:
# [1] = tested on: differentiated HL-60 cells; assay: Inhibition of TPA-induced superoxide anion radical generation (HL-60 Antioxidant); type: cell-based, human; conditions: screening concentration 100 µM; for inhibition at 100 µM: Homo sapiens, HL-60, read-out: HL-60 Antiox. %Inh
# From the text: Inhibition of 12-O-tetradecanoylphorbol-13-acetate (TPA)-induced superoxide anion radical generation in differentiated HL-60 cells (HL-60 Antioxidant) TPA-induced superoxide anion radical formation was detected in differentiated HL-60 cells by photometric determination of cytochrome c reduction as previously described by Gerhäuser et al., 2003.ii Superoxide dismutase (SOD;15U) was a positive control. […]
# aromatase (CYP19) = target: T1, aromatase (CYP19) (Homo sapiens, UniProt P11511); assay: Inhibition of aromatase (AIA); type: biochemical; conditions: for inhibition at 12.5 µM: I = %inhibition lower than 50%, read-out: Aromatase inhibitory activity %Inhibition
# T1 sequence (P11511 1-503): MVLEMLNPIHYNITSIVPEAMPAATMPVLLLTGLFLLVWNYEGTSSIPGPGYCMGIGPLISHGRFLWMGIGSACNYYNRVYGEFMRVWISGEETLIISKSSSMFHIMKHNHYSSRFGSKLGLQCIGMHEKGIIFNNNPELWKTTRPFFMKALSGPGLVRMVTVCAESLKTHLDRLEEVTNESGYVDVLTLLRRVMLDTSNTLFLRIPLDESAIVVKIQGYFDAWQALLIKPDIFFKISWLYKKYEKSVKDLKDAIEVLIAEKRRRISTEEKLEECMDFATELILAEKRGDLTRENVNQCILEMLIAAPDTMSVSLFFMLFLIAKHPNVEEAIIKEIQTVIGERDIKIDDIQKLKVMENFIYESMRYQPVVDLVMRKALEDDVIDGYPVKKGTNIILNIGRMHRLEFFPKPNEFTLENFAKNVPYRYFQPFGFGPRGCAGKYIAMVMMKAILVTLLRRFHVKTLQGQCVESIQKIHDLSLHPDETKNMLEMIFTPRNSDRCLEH
# Method: Estrogens are the critical risk factor for breast cancer initiation and progression and the aromatase enzyme involves in the final step conversion of androgens to estrogens[21],[22]. […] In this study, the synthesized psoralen derivatives were also tested for aromatase inhibitory activity (AIA) which is considered to be one of chemopreventive mechanisms for hormone dependent breast cancer.
# Inhibition of the aromatase was performed using the method designed by Stresser et al.[39].
# T47-D = assay: MTT cytotoxicity, 48 h, without UVA; type: cell-based, human; conditions: for inhibition at 50 µg/mL / IC50: Homo sapiens, T47D, light or radiation study, 48 h, without UVA; for inhibition at 50 µg/mL: I = %inhibition lower than 50%, read-out: Cytotoxic activity T47-D %Inhibition; for IC50: hormone-dependent breast cancer, read-out: Cytotoxic activity T47-D IC50; for Selectivity Index (SI): SI = IC50 for MRC-5/IC50 for T47-D
# Method: Additionally, the cytotoxicity towards normal cells, human embryonal lung fibroblast cell MRC-5 was also assessed.
# (§1) MDA-MB-231 (triple-negative breast cancer) was obtained from M.D. Anderson Cancer Center, Houston, TX, USA). T47-D (hormone-dependent breast carcinoma), SK-BR-3 (human HER2+ breast cancer), and MRC-5 (normal embryonic lung fibroblast) were obtained from the American Type Culture Collection (ATCC, Manassas, VA, USA).
# (§2) The cytotoxic effect of tested compounds was evaluated in two breast cancer cell lines, MDA-MB-231 and T47-D. Number of survival cells after exposure to tested compounds for 48 h was determined by MTT assay, as previously described.
# MDA-MB-231 [2] = assay: MTT cytotoxicity, 48 h, without UVA; type: cell-based; conditions: Homo sapiens, MDA-MB-231, light or radiation study; for inhibition at 50 µg/mL: I = %inhibition lower than 50%, read-out: Cytotoxic activity MDA-MB-231 %Inhibition; for IC50: hormone-independent breast cancer, read-out: Cytotoxic activity MDA-MB-231 IC50
# Method: as §1, §2
# [3] = Scavenging of diphenyl-picryl-hydrazyl radicals (DPPH); conditions: for DPPH %Inh: screening concentration 250 µM
# From the text: 1. Chemoprevention activity
# [4] = Inhibition of superoxide radical formation by xanthine/xanthine oxidase (XXO); type: biochemical
# From the text: 1. […]
# MDA-MB-231 [5] = assay: Dark and light-activated (UVA) cytotoxicity, MTT; type: cell-based; conditions: Homo sapiens, MDA-MB-231, light or radiation study; irradiation with UVA (2.0 J cm^−2); HER2− breast cancer
# Method: (§3) The selected compounds were screened for their IC50 values against both HER2+ breast cancer (SK-BR-3), and HER2− breast cancer (MDA-MB-231) in both dark and light-activated conditions (Table 2). Additionally, a negative control study was also performed with SK-BR-3 and MDA-MB-231 cells in the absence of tested compound under UVA irradiation (See Fig S7., Supporting Information).
# (§4) SK-BR-3 and MDA-MB-231 cells were seeded into 96-well cell culture plates at 5 × 10^3 cells/well and incubated for 24 h at 37 °C under 5% CO2. After that, the cells were treated with 50 μM of psoralen derivatives in DMEM with 10% FBS and the cells were continued incubation for another 4 h. After incubation, the cells were washed with PBS (3 times) and then irradiated by a 365 nm lamp with the light intensity of 2.0 J cm^−2 for 12.5 min before re-incubation for another 72 h. After incubation, the cell was treated with methylthiazolyldiphenyl-tetrazolium bromide (MTT reagent 200 μL, 0.5 mg mL^−1, Sigma-Aldrich) for 2 h. After reagent removal, DMSO was added to dissolve the formazan product and the cell viabilities were determined through UV–Vis absorption of the resulting formazan at wavelength 560 nm using a microplate reader (BMG Labtech/SPECTROstar Nano). The cell morphology images were captured by using a light microscope (Microscope Nikon, inverted digital) at 20X magnification prior to treating with MTT reagent.
# MDA-MB-231 [6] = assay: Dark and light-activated (UVA) cytotoxicity, MTT; type: cell-based; conditions: Homo sapiens, dark, HER2− breast cancer
# SK-BR-3 [7] = assay: Dark and light-activated (UVA) cytotoxicity, MTT; type: cell-based, human; conditions: Homo sapiens, SK-BR-3, light or radiation study; irradiation with UVA (2.0 J cm^−2); HER2+ breast cancer
# Method: as §3, §4
# SK-BR-3 [8] = assay: Dark and light-activated (UVA) cytotoxicity, MTT; type: cell-based; conditions: Homo sapiens, dark, HER2+ breast cancer
# MCF-7 = conditions: Fig. 1d; cited from earlier work
Structure (SMILES),melting point,inhibition at 100 µM [1],inhibition at 12.5 µM (aromatase (CYP19)),inhibition at 50 µg/mL (T47-D),inhibition at 50 µg/mL (MDA-MB-231 [2]),DPPH %Inh [3],other results
"COc1c2occc2c(NC(=O)c2ccccc2)c2ccc(=O)oc12 [3a, N-(9-Methoxy-7-oxo-7H-furo[3,2-g]chromen-4-yl)benzamide]",220 to 222 °C,3%,3%,45%,25%,6%,
"COc1c2occc2c(NC(=O)c2ccc(F)cc2)c2ccc(=O)oc12 [3b, 4-Fluoro-N-(9-methoxy-7-oxo-7H-furo[3,2-g]chromen-4-yl)benzamide]",276 to 277 °C,1%,6%,49%,34%,3%,
"COc1c2occc2c(NC(=O)c2ccc(Br)cc2)c2ccc(=O)oc12 [3c, 4-Bromo-N-(9-methoxy-7-oxo-7H-furo[3,2-g]chromen-4-yl)benzamide]",293 to 294 °C,,13%,,,6%,HL-60 Antiox. %Inh [1]: Toxic; IC50 (T47-D): 10.1 ± 0.53 µM; Selectivity Index (SI) (T47-D): > 11.9; XXO %Inh ([4]; screening concentration 500 µM): 25%; IC50 (MDA-MB-231 [2]): 91.3 ± 7.84 µM
"COc1c2occc2c(NC(=O)c2ccc(C(F)(F)F)cc2)c2ccc(=O)oc12 [3d, N-(9-Methoxy-7-oxo-7H-furo[3,2-g]chromen-4-yl)-4-(trifluoromethyl)benzamide]",284 to 286 °C,,10%,,35%,7%,HL-60 Antiox. %Inh [1]: Toxic; fold superiority of SI over tamoxifen citrate (T47-D): ≥ 2.8 fold; IC50 (T47-D): 13.6 ± 0.26 µM; Selectivity Index (SI) (T47-D): > 9.1
"COc1ccc(C(=O)Nc2c3ccoc3c(OC)c3oc(=O)ccc23)cc1 [3e, 4-Methoxy-N-(9-methoxy-7-oxo-7H-furo[3,2-g]chromen-4-yl)benzamide]",211 to 212 °C,0%,15%,38%,19%,4%,IC50 (MDA-MB-231 [5]): > 100 µM; IC50 (MDA-MB-231 [6]): > 100 µM; IC50 (SK-BR-3 [7]): 66.7 ± 2.75 µM; IC50 (SK-BR-3 [8]): > 100 µM
"COc1c2occc2c(NC(=O)c2cccs2)c2ccc(=O)oc12 [3h, N-(9-Methoxy-7-oxo-7H-furo[3,2-g]chromen-4-yl) thiophene-2-carboxamide]",213 to 214 °C,24%,8%,25%,8%,6%,
"COc1c2occc2c(NC(=O)C(C)(C)C)c2ccc(=O)oc12 [3l, N-(9-Methoxy-7-oxo-7H-furo[3,2-g]chromen-4-yl)pivalamide]",210 to 212 °C,10%,14%,21%,1%,1%,IC50 (MDA-MB-231 [5]): > 100 µM; IC50 (MDA-MB-231 [6]): > 100 µM; IC50 (SK-BR-3 [7]): 48.1 ± 3.07 µM; IC50 (SK-BR-3 [8]): > 100 µM
"COc1c2occc2c(NCc2ccc(Br)cc2)c2ccc(=O)oc12 [4b, 4-((4-Bromobenzyl)amino)-9-methoxy-7H-furo[3,2-g]chromen-7-one]",150 to 151 °C,,,,,,HL-60 Antiox. %Inh [1]: Toxic; IC50 (aromatase (CYP19); read-out: Aromatase inhibitory activity IC50): 0.9 ± 0.2 µM; fold superiority of SI over tamoxifen citrate (T47-D): ≥ 3.7 fold; IC50 (T47-D): 10.4 ± 0.79 µM; Selectivity Index (SI) (T47-D): > 12.0; IC50 (MDA-MB-231 [2]): 94.4 ± 4.77 µM; IC50 ([3]; read-out: DPPH IC50): 166 µM
"O=C1O[C@H]([C@@H](O)CO)C(O)=C1O [Ascorbic acid, reference compound]",,,,,,,"IC50 ([3]; half-maximal scavenging concentration, reference compound, read-out: DPPH IC50 (standard)): 43.1 µM"
"O=C(O)c1cc(O)c(O)c(O)c1 [Gallic acid, reference compound]",,,,,,,"IC50 ([4]; positive control, read-out: XXO IC50 (standard)): 2.8 ± 0.1 µM"
COc1c2occc2c(N2C(=O)CSC2c2ccc(Br)cc2)c2ccc(=O)oc12 (centres unmarked) [III],,,,,,,anti-cancer activity (MCF-7) (MCF-7): Inactive
COc1c2occc2c(N=Cc2cccs2)c2ccc(=O)oc12 [II],,,,,,,anti-cancer activity (MCF-7) (MCF-7): Inactive
CCNC(=S)Nc1c2ccoc2c(OC)c2oc(=O)ccc12 [IVa],,,,,,,anti-cancer activity (MCF-7) (MCF-7): Inactive
COc1c2occc2c(NC(=S)NCc2ccccc2)c2ccc(=O)oc12 [IVb],,,,,,,anti-cancer activity (MCF-7) (MCF-7): Inactive
"COc1c2occc2c([N+](=O)[O-])c2ccc(=O)oc12 [compound 1, 9-Methoxy-4-nitro-7H-furo[3,2-g]chromen-7-one]",237 to 238 °C,1%,34%,,39%,5%,IC50 (T47-D): > 100 µM
"COc1c2occc2c(N)c2ccc(=O)oc12 [compound 2, 4-Amino-9-methoxy-7H-furo[3,2-g]chromen-7-one]",238 to 239 °C,0%,9%,28%,3%,23%,
